Test results taken from patent publication US20060069132A1, “Azolecarboxamide herbicides” (priority 2004, published 2006).
Like-named read-outs stand apart in the source and are kept apart here.

How the values were obtained:
Assay in all cases: Test C pre-/postemergence herbicide test
woolly cupgrass = assay type: in vivo, Eriochloa villosa
In short: (§1)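 Pre- and postemergence application, solvent/surfactant formulation; post at 1- to 4-leaf stage (2–18 cm). Greenhouse 12–14 d. Visual rating vs controls, 0 = no effect, 100 = complete control.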

eastern black nightshade = assay type: in vivo, Solanum ptycanthum
Description: Seeds of plant species selected from bermudagrass (Cynodon dactylon (L.) Pers.), Surinam grass (Urochloa decumbens (Staph) R. D. Webster, previously named Brachiaria decumbens Stapf), cocklebur (Xanthium strumarium L.), corn (Zea mays L.), large crabgrass (Digitaria sanguinalis (L.) Scop.), woolly cupgrass (Eriochloa villosa (Thunb.) Kunth), giant foxtail (Setaria faberi Herrm.), goosegrass (Eleusine indica (L.) Gaertn.), johnsongrass (Sorghum halepense (L.) Pers.), kochia (Kochia scoparia (L.) Schrad.), lambsquarters (Chenopodium album L.), morningglory (Ipomoea coccinea L.), eastern black nightshade (Solanum ptycanthum Dunal), yellow nutsedge (Cyperus esculentus L.), pigweed (Amaranthus retroflexus L.), common ragweed (Ambrosia elatior L.), soybean (Glycine max (L.) Merr.), common (oilseed) sunflower (Helianthus annuus L.) and velvetleaf (Abutilon theophrasti Medik.) were planted and treated preemergence with test chemicals formulated in a non-phytotoxic solvent mixture which included a surfactant.
At the same time, plants selected from these crop and weed species and also winter barley (Hordeum vulgare L.), blackgrass (Alopecurus myosuroides Huds.), canarygrass (Phalaris minor Retz.), chickweed (Stellaria media (L.) Vill.), downy bromegrass (Bromus tectorum L.), green foxtail (Setaria viridis (L.) Beauv.), Italian ryegrass (Lolium multiflorum Lam.), wheat (Triticum aestivum L.), wild oat (Avenafatua L.) and windgrass (Apera spica-venti (L.) Beauv.) were treated with postemergence applications of some of the test chemicals formulated in the same manner. Plants ranged in height from 2 to 18 cm (1- to 4-leaf stage) for postemergence treatments. Plant species in the flooded paddy test consisted of rice (Oryza sativa), smallflower umbrella sedge (Cyperus difformis L.), ducksalad (Heteranthera limosa (Sw.) Willd.) and barnyardgrass (Echinochloa crus-galli (L.) Beauv.) grown to the 2-leaf stage for testing. Treated plants and controls were maintained in a greenhouse for 12 to 14 days, after which time all species were compared to controls and visually evaluated. Plant response ratings, summarized in Table C, are based on a scale of 0 to 100 where 0 is no effect and 100 is complete control. A dash (-) response means no test result.

large crabgrass = assay type: in vivo, Digitaria sanguinalis
In short: as §1

[1] = 125 g ai/ha, scale 0 (no effect) to 100 (complete control), visual, 12 to 14 days, preemergence
[2] = 62 g ai/ha, preemergence, scale 0 to 100
[3] = 250 g ai/ha, scale 0-100, preemergence
[4] = 500 g ai/ha, scale 0 to 100 (0 no effect, 100 complete control), visual, 12 to 14 days, preemergence

Compound | Plant response rating (0 = no effect, 100 = complete control), Cupgrass, Woolly (woolly cupgrass; 62 g ai/ha, preemergence) | Plant response rating (0 = no effect, 100 = complete control), Nightshade (eastern black nightshade; 62 g ai/ha, preemergence) | Plant response rating (0 = no effect, 100 = complete control), Crabgrass, Large (large crabgrass; 62 g ai/ha, preemergence) | Plant response rating, Cupgrass, Woolly (woolly cupgrass; [2]) | Plant response rating (0 = no effect, 100 = complete control), Cupgrass, Woolly (woolly cupgrass; 125 g ai/ha, preemergence) | Plant response rating, Cupgrass, Woolly (woolly cupgrass; [3]) | Plant response rating, Cupgrass, Woolly (woolly cupgrass; [4]) | Plant response rating, Nightshade (eastern black nightshade; [2]) | Plant response rating, Nightshade (eastern black nightshade; [4]) | Plant response rating, Crabgrass, Large (large crabgrass; [2]) | Plant response rating (0 = no effect, 100 = complete control), Crabgrass, Large (large crabgrass; 125 g ai/ha, preemergence) | Plant response rating, Crabgrass, Large (large crabgrass; [3]) | Plant response rating, Crabgrass, Large (large crabgrass; [4]) | Plant response rating (0 = no effect, 100 = complete control), Nightshade (eastern black nightshade; 125 g ai/ha, preemergence) | further results
CCOC(=O)c1cccc(NC(=O)c2cc(C(C)(C)C)nn2CC)c1 [Compound 80, ethyl 3-[[[3-(1,1-dimethylethyl)-1-ethyl-1H-pyrazol-5-yl]carbonyl]-amino]benzoate] | 0 | 10 | 0 | – | – | – | – | – | – | – | – | – | – | – | pest or weed control at 250 g/ha (woolly cupgrass; Eriochloa villosa, post-emergence, 312 h, Postemergence, 250 g ai/ha, scale 0 to 100, 0 no effect, 100 complete control, read-out: Plant response rating, Cupgrass, Woolly): 90%; pest or weed control at 125 g/ha (woolly cupgrass; Eriochloa villosa, post-emergence, 312 h, postemergence, 125 g ai/ha, scale 0 to 100, read-out: Plant response rating, Cupgrass, Woolly): 90%; pest or weed control at 62 g/ha (woolly cupgrass; Eriochloa villosa, post-emergence, 312 h, postemergence, 62 g ai/ha, scale 0 to 100, read-out: Plant response rating, Cupgrass, Woolly): 80%; pest or weed control at 31 g/ha (woolly cupgrass; Eriochloa villosa, pre-emergence, 312 h, 31 g ai/ha, preemergence, scale 0 to 100, read-out: Plant response rating, Cupgrass, Woolly): 0%; pest or weed control at 125 g/ha (woolly cupgrass; Eriochloa villosa, pre-emergence, 312 h, 125 g ai/ha, scale 0 (no effect) to 100 (complete control), visual, 12 to 14 days, read-out: Plant response rating, Cupgrass, Woolly): 10%; pest or weed control at 250 g/ha (woolly cupgrass; Eriochloa villosa, pre-emergence, 312 h, 250 g ai/ha, scale 0 to 100 (0 no effect, 100 complete control), visual, 12 to 14 days, read-out: Plant response rating, Cupgrass, Woolly): 10%; pest or weed control at 31 g/ha (eastern black nightshade; pre-emergence, 31 g ai/ha, preemergence, scale 0 to 100, read-out: Plant response rating, Nightshade): 0%; pest or weed control at 125 g/ha (eastern black nightshade; pre-emergence, 125 g ai/ha, scale 0 (no effect) to 100 (complete control), visual, 12 to 14 days, read-out: Plant response rating, Nightshade): 10%; pest or weed control at 250 g/ha (large crabgrass; Digitaria sanguinalis, post-emergence, 312 h, Postemergence, 250 g ai/ha, scale 0 to 100, 0 no effect, 100 complete control, read-out: Plant response rating, Crabgrass, Large): 90%; pest or weed control at 62 g/ha (large crabgrass; Digitaria sanguinalis, post-emergence, 312 h, postemergence, 62 g ai/ha, scale 0 to 100, read-out: Plant response rating, Crabgrass, Large): 90%; pest or weed control at 31 g/ha (large crabgrass; Digitaria sanguinalis, pre-emergence, 312 h, 31 g ai/ha, preemergence, scale 0 to 100, read-out: Plant response rating, Crabgrass, Large): 0%; pest or weed control at 125 g/ha (large crabgrass; Digitaria sanguinalis, pre-emergence, 312 h, 125 g ai/ha, scale 0 (no effect) to 100 (complete control), visual, 12 to 14 days, read-out: Plant response rating, Crabgrass, Large): 10%; pest or weed control at 250 g/ha (large crabgrass; Digitaria sanguinalis, pre-emergence, 312 h, 250 g ai/ha, scale 0 to 100 (0 no effect, 100 complete control), visual, 12 to 14 days, read-out: Plant response rating, Crabgrass, Large): 10%
CC(=O)c1cccc(NC(=O)c2cc(C(C)(C)C)nn2CCF)c1 [Compound 128] | 10 | 90 | 100 | – | – | – | – | – | – | – | – | – | – | – | Plant response rating, Cupgrass, Woolly (woolly cupgrass; [1]): 20; Plant response rating, Nightshade (eastern black nightshade; [1]): 90; Plant response rating, Crabgrass, Large (large crabgrass; [1]): 100
C=CCNC(=O)c1cccc(NC(=O)c2nn(C(C)C)nc2CC)c1 [Compound 382] | – | – | – | 0 | 0 | 20 | 40 | 95 | 100 | 95 | 100 | 100 | 100 | – | Plant response rating, Nightshade (eastern black nightshade; [3]): 95
CCc1nn(C(C)C)nc1C(=O)Nc1cccc(C(=S)N(C)C)c1 [Compound 409] | – | – | – | 40 | 55 | 80 | 80 | 45 | 95 | 85 | 95 | 95 | 95 | 85 | –
Cc1nn(C(C)(C)C)nc1C(=O)Nc1cccc(C(=S)N(C)C)c1 [Compound 419] | – | – | – | 0 | 15 | 45 | 65 | 85 | 100 | 100 | 100 | 100 | 100 | 95 | –
